Data reported in patent US20250346597A1, “CONDENSED HETEROCYCLIC COMPOUNDS AS INHIBITOR OF DIACYLGLYCEROL KINASES” (BEONE MEDICINES I GMBH, priority 2023, published 2025).

Assays:
DGKζ = DGKζ (Homo sapiens (Human), UniProt Q13574); test: Biochemical DGK IC50 assay (ADP-Glo, lipid micelle substrate), DGKζ; details: full length DGKζ 0.5 nM, ATP 140 μM, DAG 80 μM
Summary of the method: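 ADP-Glo luminescence measured ADP made in a 1 h room-temperature reaction. The enzyme was Sf9-expressed, purified full-length human DGKζ, and the substrate was DAG/PS micelles. Assay buffer held 50 mM HEPES, 10 mM MgCl2, 0.01 mM CaCl2, 0.1 mM Na3VO4 and 0.01% BSA. IC50 was derived from activity inhibition over a compound concentration series.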

DGKα = DGKα (Homo sapiens (Human), UniProt P23743); test: Biochemical DGK IC50 assay (ADP-Glo, lipid micelle substrate), DGKα; details: full length DGKα […], ATP 140 μM, DAG 80 μM; also: full length DGKα 7.5 nM
Chain of DGKα (P23743 whole entry): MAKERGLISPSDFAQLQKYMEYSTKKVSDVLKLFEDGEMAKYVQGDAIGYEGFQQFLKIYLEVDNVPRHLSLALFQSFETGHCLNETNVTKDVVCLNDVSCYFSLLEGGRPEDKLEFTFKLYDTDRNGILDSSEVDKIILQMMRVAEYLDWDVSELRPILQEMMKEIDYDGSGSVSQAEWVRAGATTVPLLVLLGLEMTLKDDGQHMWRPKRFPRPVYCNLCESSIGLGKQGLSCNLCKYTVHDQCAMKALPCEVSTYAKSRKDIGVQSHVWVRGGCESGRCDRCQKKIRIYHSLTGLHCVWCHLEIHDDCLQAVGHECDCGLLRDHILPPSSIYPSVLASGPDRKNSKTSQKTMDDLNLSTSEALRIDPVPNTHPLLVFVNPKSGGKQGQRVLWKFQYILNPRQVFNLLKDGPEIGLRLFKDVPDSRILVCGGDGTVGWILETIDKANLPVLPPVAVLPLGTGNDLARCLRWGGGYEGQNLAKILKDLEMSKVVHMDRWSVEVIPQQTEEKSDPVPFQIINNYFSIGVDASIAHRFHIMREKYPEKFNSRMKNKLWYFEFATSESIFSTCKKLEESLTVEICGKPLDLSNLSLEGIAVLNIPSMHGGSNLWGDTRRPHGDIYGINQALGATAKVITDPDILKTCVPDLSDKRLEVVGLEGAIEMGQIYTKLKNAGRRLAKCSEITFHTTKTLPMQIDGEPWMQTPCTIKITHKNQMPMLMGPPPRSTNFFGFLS
Summary of the method: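 Luminescent ADP-Glo detection followed a 1 h room-temperature reaction of full-length DGKα on DAG/PS micelles, in HEPES buffer with 10 mM MgCl2, 0.01 mM CaCl2, 0.1 mM Na3VO4, BSA and Tween-20. IC50 derived from inhibition across increasing compound concentrations.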

Chain of DGKζ (Q13574 other isoform, or with tags, fused parts or gaps): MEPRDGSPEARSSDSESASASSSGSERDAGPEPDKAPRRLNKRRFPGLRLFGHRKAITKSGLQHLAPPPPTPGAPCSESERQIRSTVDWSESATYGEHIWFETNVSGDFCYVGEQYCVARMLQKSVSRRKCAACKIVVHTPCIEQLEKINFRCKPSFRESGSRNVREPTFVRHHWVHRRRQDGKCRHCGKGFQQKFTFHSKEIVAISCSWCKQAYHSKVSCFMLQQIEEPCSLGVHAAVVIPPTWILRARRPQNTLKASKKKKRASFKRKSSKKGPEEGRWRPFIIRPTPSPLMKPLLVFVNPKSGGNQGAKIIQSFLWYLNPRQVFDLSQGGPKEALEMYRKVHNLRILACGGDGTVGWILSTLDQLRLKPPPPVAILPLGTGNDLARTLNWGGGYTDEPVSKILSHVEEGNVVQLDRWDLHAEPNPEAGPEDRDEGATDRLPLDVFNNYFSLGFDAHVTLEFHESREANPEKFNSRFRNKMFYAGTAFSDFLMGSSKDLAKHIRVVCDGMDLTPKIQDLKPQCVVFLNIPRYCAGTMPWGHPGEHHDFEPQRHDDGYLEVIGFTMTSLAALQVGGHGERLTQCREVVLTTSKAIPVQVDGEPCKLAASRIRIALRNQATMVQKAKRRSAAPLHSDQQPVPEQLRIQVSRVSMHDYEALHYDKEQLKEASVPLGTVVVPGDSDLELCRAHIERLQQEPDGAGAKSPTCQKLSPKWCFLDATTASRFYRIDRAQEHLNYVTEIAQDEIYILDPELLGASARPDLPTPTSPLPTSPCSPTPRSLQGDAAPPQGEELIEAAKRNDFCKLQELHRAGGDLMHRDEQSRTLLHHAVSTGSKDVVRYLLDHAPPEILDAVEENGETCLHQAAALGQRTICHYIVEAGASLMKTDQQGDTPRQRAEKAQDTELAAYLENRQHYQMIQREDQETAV

| IC50 (DGKζ) [nM] | IC50 (DGKα) [nM] | SMILES |
| --- | --- | --- |
| 139 | 63 | CC[C@@H]1CN(c2cc(=O)n(C)c3cn(CC#N)nc23)[C@@H](C)CN1C(C)c1ccc2cc(F)sc2n1 (stereo partly drawn) [Compound A132, 2-(7-((2S,5R)-5-ethyl-4-(1-(2-fluorothieno[2,3-b]pyridin-6-yl)ethyl)-2-methylpiperazin-1-yl)-4-methyl-5-oxo-4,5-dihydro-2H-pyrazolo[4,3-b]pyridin-2-yl)acetonitrile] |
| 3520 | 1740 | CC[C@H]1CN(C(C)c2ccc3ncsc3n2)[C@H](CC)CN1c1cc(=O)n(C)c2cn(CC#N)nc12 (single isomer, unassigned) [Compound A99a] |
| > 10000 | > 10000 | CC[C@H]1CN(C(C)c2ccn3nc(C)cc3n2)[C@H](CC)CN1c1nc(=O)n(C)c2cn(CC#N)nc12 (single isomer, unassigned) [Compound A157a] |
| 3280 | 3360 | CC[C@H]1CN(C(C)c2ccc(C3CC3)nc2)[C@H](CC)CN1c1nc(=O)n(C)c2cn(CC#N)nc12 (single isomer, unassigned) [Compound A127b] |
| 45 | 192 | CC[C@H]1CN(C(C)c2ccc3nc(C)sc3n2)[C@H](CC)CN1c1nc(=O)n(C)c2cn(CC#N)nc12 (single isomer, unassigned) [Compound A129b] |
| 18 | 2430 | CCc1nc2cc(C(C)N3C[C@H](CC)N(c4cc(=O)n(C)c5cn(CC#N)nc45)C[C@H]3CC)ccc2s1 (stereo partly drawn) [Compound A109, 2-(7-((2S,5R)-2,5-diethyl-4-(1-(2-ethylbenzo[d]thiazol-5-yl)ethyl)piperazin-1-yl)-4-methyl-5-oxo-4,5-dihydro-2H-pyrazolo[4,3-b]pyridin-2-y)acetonitrile] |
| 5050 | 1110 | CC[C@H]1CN(C(C)c2ccc3c(n2)OCO3)[C@H](CC)CN1c1cc(=O)n(C)c2cn(CC#N)nc12 (single isomer, unassigned) [Compound A75b] |
| 17.6 | 1390 | CC#CCn1cc2c(n1)c(N1C[C@@H](CC)N(C(C)c3ccc4sc(C)nc4c3F)C[C@@H]1CC)cc(=O)n2C (single isomer, unassigned) [Compound A141a] |
| 234 | 131 | CC[C@H]1CN(C(C)c2nc(C)c(C)s2)[C@H](CC)CN1c1cc(=O)n(C)c2cn(CC#N)nc12 (single isomer, unassigned) [Compound A35a] |
| 219 | 8530 | CC[C@H]1CN(C(C)c2ccc(C)cc2C)[C@H](CC)CN1c1cc(=O)n(C)c2cn(CC#N)nc12 (stereo partly drawn) [Compound A6, 2-(7-((2S,5R)-4-(1-(2,4-dimethylphenyl)ethyl)-2,5-diethylpiperazin-1-yl)-4-methyl-5-oxo-4,5-dihydro-2H-pyrazolo[4,3-b]pyridin-2-yl)acetonitrile] |
| 2610 | 2890 | CC[C@@H]1CN(c2cc(=O)n(C)c3cn(CC#N)nc23)[C@@H](C)CN1C(C)c1ccc2ncsc2n1 (single isomer, unassigned) [Compound A100b] |
| 93 | 43 | CC[C@H]1CN(C(C)c2ccc3nc(C)cn3n2)[C@H](CC)CN1c1cc(=O)n(C)c2cn(CC#N)nc12 (single isomer, unassigned) [Compound A149b] |
| 1720 | 10500 | CC[C@H]1CN(C(C)c2ccc3scnc3c2F)[C@H](CC)CN1c1cc(=O)n(C)c2cn(CC#N)nc12 (single isomer, unassigned) [Compound A110b] |
| 45 | 36 | CC[C@H]1CN(C(C)c2ccc3cc(C(F)F)sc3n2)[C@H](CC)CN1c1nc(=O)n(C)c2cn(CC#N)nc12 (single isomer, unassigned) [Compound A148b] |

The next lines start with the compound.

| SMILES | IC50 (DGKζ) [nM] | IC50 (DGKα) [nM] |
| --- | --- | --- |
| CC[C@H]1CN(C(C)c2ccc(NC(C)=O)c(O)c2F)[C@H](CC)CN1c1cc(=O)n(C)c2cn(CC#N)nc12 (single isomer, unassigned) [Compound A87b] | > 10000 | 35200 |
| CC(c1cc2c(cc1F)OCC(C)(C)O2)N1C[C@H](C)N(c2cc(=O)n(C)c3cn(CC#N)nc23)C[C@H]1C (single isomer, unassigned) [Compound A179b] | 323 | 3190 |
| Cc1cc2nc(C(C)N3C[C@H](C)N(c4cc(=O)n(C)c5cn(CC#N)nc45)C[C@H]3C)ccc2s1 (single isomer, unassigned) [Compound A155b] | 1970 | 139 |
| CC[C@H]1CN(C(C)c2ccc(C(=O)N(C)C)c(F)c2)[C@H](CC)CN1c1cc(=O)n(C)c2cn(CC#N)nc12 (single isomer, unassigned) [Compound A4b] | 3170 | 4840 |
| CC[C@H]1CN(C(C)c2ccc(C(C)C)cc2)[C@H](CC)CN1c1cc(=O)n(C)c2cn(CC#N)nc12 (stereo partly drawn) [Compound A31, 2-(7-((2S,5R)-2,5-diethyl-4-(1-(4-isopropylphenyl)ethyl)piperazin-1-yl)-4-methyl-5-oxo-4,5-dihydro-2H-pyrazolo[4,3-b]pyridin-2-yl)acetonitrile] | 213 | 615 |
| Cc1cc2nc(C(C)N3C[C@H](C)N(c4cc(=O)n(C)c5cn(CC#N)nc45)C[C@H]3C)ccc2s1 (stereo partly drawn) [Compound A155, 2-(7-((2S,5R)-2,5-dimethyl-4-(1-(2-methylthieno[3,2-b]pyridin-5-yl)ethyl)piperazin-1-yl)-4-methyl-5-oxo-4,5-dihydro-2H-pyrazolo[4,3-b]pyridin-2-yl)acetonitrile] | 74 | 378 |
| CCC(c1ccc(C(F)(F)F)cc1)N1C[C@H](CC)N(c2cc(=O)n(C)c3cn(CC#N)nc23)C[C@H]1CC (single isomer, unassigned) [Compound A135b] | 3750 | 483 |
| CC[C@H]1CN(C(C)c2ccc(CN(C)C)cc2)[C@H](CC)CN1c1cc(=O)n(C)c2cn(CC#N)nc12 (stereo partly drawn) [Compound A28, 2-(7-((2S,5R)-4-(1-(4-((dimethylamino)methyl)phenyl)ethyl)-2,5-diethylpiperazin-1-yl)-4-methyl-5-oxo-4,5-dihydro-2H-pyrazolo[4,3-b]pyridin-2-yl)acetonitrile] | 4830 | 10000 |
| CC[C@H]1CN(C(C)c2ccc(CS(C)(=O)=O)cc2)[C@H](CC)CN1c1cc(=O)n(C)c2cn(CC#N)nc12 (stereo partly drawn) [Compound A198, 2-(7-((2S,5R)-2,5-diethyl-4-(1-(4-((methylsulfonyl)methyl)phenyl)ethyl)piperazin-1-yl)-4-methyl-5-oxo-4,5-dihydro-2H-pyrazolo[4,3-b]pyridin-2-yl)acetonitrile] | 5560 | 91 |
| CC[C@H]1CN(C(C)c2ccc(COC)nc2)[C@H](CC)CN1c1cc(=O)n(C)c2cn(CC#N)nc12 (single isomer, unassigned) [Compound A42b] | 5060 | 6640 |
| CC[C@@H]1CN(c2cc(=O)n(C)c3cn(CC#N)nc23)[C@@H](C)CN1C(C)c1ccn2nc(C)cc2n1 (single isomer, unassigned) [Compound A172b] | > 10000 | 7830 |
| CC[C@H]1CN(C(C)c2ccn3nc(C)cc3c2)[C@H](CC)CN1c1cc(=O)n(C)c2cn(CC#N)nc12 (single isomer, unassigned) [Compound A162b] | 3270 | 2430 |
| CC[C@H]1CN(C(C)c2ccc(COC)nc2)[C@H](CC)CN1c1cc(=O)n(C)c2cn(CC#N)nc12 (single isomer, unassigned) [Compound A42a] | 315 | 1960 |
| CC[C@H]1CN(C(C)c2cnc3c(c2)CCO3)[C@H](CC)CN1c1cc(=O)n(C)c2cn(CC#N)nc12 (stereo partly drawn) [Compound A74, 2-(7-((2S,5R)-4-(1-(2,3-dihydrofuro[2,3-b]pyridin-5-yl)ethyl)-2,5-diethylpiperazin-1-yl)-4-methyl-5-oxo-4,5-dihydro-2H-pyrazolo[4,3-b]pyridin-2-yl)acetonitrile] | 475 | 5820 |
| CC[C@H]1CN(C(C)c2ccc(OC3COC3)c(F)c2)[C@H](CC)CN1c1cc(=O)n(C)c2cn(CC#N)nc12 (single isomer, unassigned) [Compound A23b] | 534 | 138 |
| CC#CCn1cc2c(n1)c(N1C[C@@H](CC)N(C(C)c3nc4ccccc4nc3C)C[C@@H]1C)cc(=O)n2C (single isomer, unassigned) [Compound A111a] | > 10000 | 2540 |
| CC#CCn1cc2c(n1)c(N1C[C@@H](CC)N(C(C)c3ccc4ncsc4n3)C[C@@H]1C)cc(=O)n2C (stereo partly drawn) [Compound A118, 2-(but-2-yn-1-yl)-7-((2S,5R)-5-ethyl-2-methyl-4-(1-(thiazolo[5,4-b]pyridin-5-yl)ethyl)piperazin-1-yl)-4-methyl-2,4-dihydro-5H-pyrazolo[4,3-b]pyridin-5-one] | 232 | 20 |
| CC[C@@H]1CN(c2cc(=O)n(C)c3cn(CC#N)nc23)[C@@H](C)CN1[C@@H](C)c1ccn2nc(C)c(F)c2n1 (single isomer, unassigned) [Compound A173a] | 19 | 168 |
| CC[C@H]1CN(C(C)c2cnc(C3CC3)cc2F)[C@H](CC)CN1c1cc(=O)n(C)c2cn(CC#N)nc12 (single isomer, unassigned) [Compound A47a] | 88 | 1190 |
| CC[C@H]1CN(C(C)c2ccc(C(=O)N(C)CCOC)cc2)[C@H](CC)CN1c1cc(=O)n(C)c2cn(CC#N)nc12 (single isomer, unassigned) [Compound A195a] | 1410 | 774 |
| CC[C@H]1CN(C(C)c2ccc(C3CC3)nc2)[C@H](CC)CN1c1cc(=O)n(C)c2cn(CC#N)nc12 (single isomer, unassigned) [Compound A38a] | 126 | 810 |
